“Also recorded” adds a separate entry of the source.
Test system: 3D7
Assay: not given
Design: unit not given here
Conditions: cited from earlier work

Compound | 3D7
OCc1cc(C(O)CNCCCCCCOCCCCc2ccccc2)ccc1O (centres unmarked) [Salmeterol xinafoate] | 72.5
CC[C@]1(O)C[C@@H]2CN(CCc3c([nH]c4ccccc34)[C@@](C(=O)OC)(c3cc4c(cc3OC)N(C)[C@H]3[C@@](O)(C(N)=O)[C@H](O)[C@]5(CC)C=CCN6CC[C@]43[C@@H]65)C2)C1 [Vindesine] | 81.9
Phenylmercuric acetate | 97.7
Tolonium chloride | 99.5

Same assay, conditions: repurposing dataset, 179 approved drugs; ref https://www.nature.com/articles/nchembio806; cited from earlier work

Compound | 3D7
O=C(c1ccc(OCCN2CCCCC2)cc1)c1c(-c2ccc(O)cc2)sc2cc(O)ccc12 [Raloxifene] | 97.1
CO[C@H]1C[C@@H]2CC[C@@H](C)[C@@](O)(O2)C(=O)C(=O)N2CCCC[C@H]2C(=O)O[C@H]([C@H](C)C[C@@H]2CC[C@@H](O)[C@H](OC)C2)CC(=O)[C@H](C)/C=C(\C)[C@@H](O)[C@@H](OC)C(=O)[C@H](C)C[C@H](C)/C=C/C=C/C=C/1C [Rapamycin] | 51.4
Cc1nc2n(c(=O)c1CCN1CCC(c3noc4cc(F)ccc34)CC1)CCCC2 [Risperidone] | 67.5
CC(C)c1nc(CN(C)C(=O)N[C@H](C(=O)N[C@@H](Cc2ccccc2)C[C@H](O)[C@H](Cc2ccccc2)NC(=O)OCc2cncs2)C(C)C)cs1 [Ritonavir] | 84.9
C=CC[N+]1([C@H]2C[C@H]3[C@@H]4CC[C@H]5C[C@H](O)[C@@H](N6CCOCC6)C[C@]5(C)[C@H]4CC[C@]3(C)[C@H]2OC(C)=O)CCCC1 [Rocuronium bromide] | 52.6
CC[C@@H](C(=O)[C@@H](C)[C@@H](O)[C@H](C)[C@@H]1O[C@@H]([C@@H](CC)C(=O)O)CC[C@@H]1C)[C@H]1O[C@]2(C=C[C@@H](O)[C@]3(CC[C@@](C)([C@H]4CC[C@](O)(CC)[C@H](C)O4)O3)O2)[C@H](C)C[C@@H]1C [Salinomycin] | 99.1
CC(=O)[O][Pt]([NH2])([Cl])([Cl])([NH]C1CCCCC1)[O]C(C)=O [Satraplatin] | 87.3
CCCCCCCCCCCCCCCCCC[N+](C)(C)C.[Cl-] [Stearyltrimethylammonium chloride] | 78.6
CCCCCCCCNC(C)C(O)c1ccc(SC(C)C)cc1 (centres unmarked) [Suloctidil] | 97.3
CO[C@@H]1[C@H](OC(=O)NC(=O)CCl)CC[C@]2(CO2)[C@H]1[C@@]1(C)O[C@@H]1CC=C(C)C [TNP-470] | 67
CC/C(=C(\c1ccccc1)c1ccc(OCCN(C)C)cc1)c1ccccc1 [Tamoxifen] | 97.5
CC(C)N1CCN(c2ccc(OCC3COC(Cn4cncn4)(c4ccc(Cl)cc4Cl)O3)cc2)CC1 (centres unmarked) [Terconazole] | 56
Nc1nc2nc[nH]c2c(=S)[nH]1 [Thioguanine] | 68.7
CN(C)C(=S)SSC(=S)N(C)C [Thiram] | 96.7
CCCCCCCCCCCCCCCC[N+](C)(C)CCN(Cc1ccc(OC)cc1)c1ncccn1 [Thonzonium bromide] | 97.5
CCN(CC)CCOc1ccc2c(c1)C(=O)c1cc(OCCN(CC)CC)ccc1-2 [Tilorone] | 98.9
CC[C@@]1(O)C(=O)OCc2c1cc1n(c2=O)Cc2cc3c(CN(C)C)c(O)ccc3nc2-1 [Topotecan] | 80.1

Compound | 3D7
Nc1nc(N)c2nc(-c3ccccc3)c(N)nc2n1 [Triamterene] | 79.4
CCC(C)C(C(=O)OCC[N+](C)(CC)CC)c1ccccc1 (centres unmarked) [Valethamate] | 79.9
COc1ccc(CCN(C)CCCC(C#N)(c2ccc(OC)c(OC)c2)C(C)C)cc1OC (centres unmarked) [Verapamil] | 98
C=Cc1c(C)c2cc3nc(cc4[nH]c(cc5nc(cc1[nH]2)C(C)=C5CCC(=O)O)c(CCC(=O)OC)c4C)[C@@]1(C)C3=CC=C(C(=O)OC)[C@H]1C(=O)OC [Verteporfin] | 95.4
CC[C@]1(O)C[C@@H]2CN(CCc3c([nH]c4ccccc34)[C@@](C(=O)OC)(c3cc4c(cc3OC)N(C)[C@H]3[C@@](O)(C(=O)OC)[C@H](OC(C)=O)[C@]5(CC)C=CCN6CC[C@]43[C@@H]65)C2)C1 [Vinblastine] | 66.7
CC[C@]1(O)C[C@H]2CN(CCc3c([nH]c4ccccc34)[C@@](C(=O)OC)(c3cc4c(cc3OC)N(C=O)[C@H]3[C@@](O)(C(=O)OC)[C@H](OC(C)=O)[C@]5(CC)C=CCN6CC[C@]43[C@@H]65)C2)C1 [Vincristine] | 69.5
CCC1=C[C@@H]2CN(C1)Cc1c([nH]c3ccccc13)[C@@](C(=O)OC)(c1cc3c(cc1OC)N(C)[C@H]1[C@@](O)(C(=O)OC)[C@H](OC(C)=O)[C@]4(CC)C=CCN5CC[C@]31[C@@H]54)C2 [Vinorelbine] | 97.7
Atovaquone | 97
Brilliant green | 93.5
Carboplatin | 76.4
Corticotropin A | 86.4
Doxycycline | 59.7
Gramicidin A | 98.5
Heparin | 79.9
Meclocycline | 68.7
Plicamycin | 98.2

Test system: Pf (DD2)
Assay: Validation dataset: previously performed HTS at University of Central Florida, Chakrabarti Laboratory
Format: cell-based, Plasmodium falciparum
Conditions: class label
Procedure: The validation dataset consists of the results from previously performed HTS in University of Central Florida at the Chakrabarti Laboratory, consisting of natural-products, kinase inhibitors from commercial vendors Asinex (Winston-Salem, NC)and ChemDiv (San Diego, CA) libraries. This dataset contains 4,497 molecules and their inhibition property. […] Using this external validation dataset, the realistic capabilities of the model are evaluated in the validation process. The raw data supporting the conclusions of this manuscript will be made available by the authors, without any restriction, to any qualified researcher (Supplementary Material 4).

Compound | DD2
COc1ccc(-c2nc3n(n2)C(c2cccnc2)C2=C(CC(C)(C)CC2=O)N3)cc1 (centres unmarked) | 0 (zero if otherwise)
C=CCN1C(=O)COc2ccc(NC(=O)c3oc4cc(C)ccc4c3C)cc21 | 0 (zero if otherwise)
C=CCOC(=O)C1=C(C)NC(=S)NC1c1ccc(C(C)(C)C)cc1 (centres unmarked) | 0 (zero if otherwise)
O=C1NC(=S)S/C1=C\c1ccc(O)cc1 [O=C1NC(=S)S/C1=C\c1ccc(O)cc1] | 0 (zero if otherwise)

Test system: P. falciparum Dd2
Assay: Stage-specific activity assay (Giemsa smears, YOYO-1 flow cytometry)
Format: cell-based, Plasmodium falciparum
Conditions: synchronized Dd2, compound at 3X EC50 added at 6, 18, 30, 42 hpi
Procedure: P. falciparum Dd2 cell line was synchronized using a combination of 5% sorbitol and magnetic column separation as described ([Roberts et al., 2016]). Cultures at 2% parasitemia and 2% hematocrit were added to microtiter plate wells and measurements began 6 h post-invasion (6 hpi). Hit compounds were added at 3X EC50 concentration at specified time points. Controls are DHA (3X EC50) and untreated cultures. Giemsa-stained thin smears were made for each time point and an aliquot of the culture was fixed for flow cytometric analysis using 0.04% glutaraldehyde in PBS. After fixing and aspirating, cells were permeabilized with 0.25% Triton-100 followed by treatment with RNase (0.05 mg/ml) for 3 h. Next, YOYO 1 (10.24 µM) fluorescent dye was added and samples were analyzed ([Bouillon et al., 2013]) using Beckman Coulter (Indianapolis, IN) CytoFlex S flowcytometer.

Compound | Stage specific activity
Cc1cc(C)n(Cc2c(C(=O)N3CCC4(CCCCOC[C@@H]5CCCN5C(=O)c5cccc(c5)OC4)CC3)noc2C)n1 [DC-5921, CC1=NN(CC2=C(C)ON=C2C(=O)N2CCC3(CC2)CCCCOC[C@@H]2CCCN2C(=O)C2=CC(OC3)=CC=C2)C(C)=C1] | active in early stages, late Troph and early schizont; also recorded: inhibit the early stages
CCc1nc2ccccc2c(C(=O)N2CCC3(CCCCOCCNC(=O)c4ccccc4OC3)CC2)c1C [DC-5931, CCC1=NC2=C(C=CC=C2)C(C(=O)N2CCC3(CC2)CCCCOCCNC(=O)C2=C(OC3)C=CC=C2)=C1C] | mostly active in early stages; also recorded: inhibit the early stages

Test system: multidrug resistant P. falciparum strain Dd2
Assay: SYBR Green I Plasmodium growth inhibition assay (fixed concentration screen and EC50)
Format: cell-based, Plasmodium falciparum
Conditions: Plasmodium falciparum; Pf Dd2, 1 µM, 72 h; read-out: Inhibition One-point (%)
Procedure: P. falciparum cultures were maintained under standard culture conditions in RPMI 1640 medium supplemented with 25 mM HEPES, pH 7.4, 26 mM NaHCO3, 2% dextrose, 15 mg/L hypoxanthine, 25 mg/L gentamycin, and 0.5% Albumax II maintained at 37°C in 5% CO2 and 95% air. Initially, a fixed concentration phenotypic screening was performed against multidrug resistant P. falciparum strain Dd2 (resistant to chloroquine, pyrimethamine, and mefloquine) using a SYBR Green I assay ([Johnson et al., 2007]; [Vossen et al., 2010]). An EVO-150 robotic liquid handler (Tecan, Morrisville, NC) was used to aliquot compounds at a final concentration of 1 µM followed by addition of culture to 96-well plates (Greiner, Monroe, NC) at 1% parasitemia, 2% hematocrit. Plates were incubated for 72 h at 37°C in a humidified atmosphere 5% CO2/95% air prior to freezing. Plates were subsequently thawed and 1X SYBR Green I was added with lysis buffer (20 mM Tris-HCl, 0.08% saponin, 5 mM EDTA, 0.8% Triton X-100). After incubation at room temperature in dark for 1 h, the fluorescent emission was measured at excition and emission wavelengths of 485 nm and 530 nm, respectively, using a BioTek Synergy neo2 (Winooski, VT) plate reader. […] Curve fitting was performed using GraphPad Prism and EC50 value was determined for each compound.

Compound | inhibition at 1 µM
Cc1cc(C)n(Cc2c(C(=O)N3CCC4(CCCCOC[C@@H]5CCCN5C(=O)c5cccc(c5)OC4)CC3)noc2C)n1 [DC-5921, CC1=NN(CC2=C(C)ON=C2C(=O)N2CCC3(CC2)CCCCOC[C@@H]2CCCN2C(=O)C2=CC(OC3)=CC=C2)C(C)=C1] | 90%
CCc1nc2ccccc2c(C(=O)N2CCC3(CCCCOCCNC(=O)c4ccccc4OC3)CC2)c1C [DC-5931, CCC1=NC2=C(C=CC=C2)C(C(=O)N2CCC3(CC2)CCCCOCCNC(=O)C2=C(OC3)C=CC=C2)=C1C] | 80%
CN1CCOc2ccccc2CCCCCC2(CCN(C(=O)[C@@H](N)c3ccccc3)CC2)C1=O [DC-9235, CN1CCOC2=C(CCCCCC3(CCN(CC3)C(=O)[C@@H](N)C3=CC=CC=C3)C1=O)C=CC=C2] | 92%
CN1CCOc2ccccc2CCCCCC2(CCN(C(=O)[C@H](N)c3ccccc3)CC2)C1=O [DC-9239, CN1CCOC2=C(CCCCCC3(CCN(CC3)C(=O)[C@H](N)C3=CC=CC=C3)C1=O)C=CC=C2] | 79%

Same assay, conditions: Plasmodium falciparum; Pf Dd2, 72 h; spread given in nM

Compound | EC50
Cc1cc(C)n(Cc2c(C(=O)N3CCC4(CCCCOC[C@@H]5CCCN5C(=O)c5cccc(c5)OC4)CC3)noc2C)n1 [DC-5921, CC1=NN(CC2=C(C)ON=C2C(=O)N2CCC3(CC2)CCCCOC[C@@H]2CCCN2C(=O)C2=CC(OC3)=CC=C2)C(C)=C1] | 0.9 nM

Same assay, conditions: test dataset (macrocyclic library), class label, 1 µM

Compound | DD2
CC(=O)N1CCCN(Cc2ccccc2)CCN(C(=O)c2ccccc2F)Cc2cc(F)c(F)cc21 | 0 (zero if otherwise)
C[C@H]1C(=O)NCCOc2ccccc2C(=O)N[C@H](C(=O)NCCCc2ccccc2)CCC(=O)N1C | 0 (zero if otherwise)
Cc1noc(C2CCCN2C(=O)CN2CCC3(CCCCc4ccccc4OCCCNC3=O)CC2)n1 (centres unmarked) | 0 (zero if otherwise)
Cn1cnnc1C1CCCCN1C(=O)CN1CCC2(CCCCc3ccccc3OCCCNC2=O)CC1 (centres unmarked) | 0 (zero if otherwise)

Test system: human hepatoma cell line HepG2
Assay: MTS based cytotoxicity assay (counter-screen for selectivity)
Format: cell-based
Conditions: 48 h
Procedure: Selectivity was determined by counter-screening against human hepatoma cell line HepG2 in a MTS (3-(4,5-Dimethylthiazol-2-yl)-5-(3-carboxymethoxyphenyl)-2-(4-sulfophenyl)-2H-tetrazolium) based cytotoxicity assay (CellTiter 96® Aqueous One, Promega, Madison, WI) ([Riss et al., 2004]). Briefly, microtiter plates were seeded with 1,500 cells per well in a 384 well plate and incubated for 24 h at 37°C in 5% CO2/95% air atmosphere. The next day, compounds were added at seven different serially diluted concentrations starting at 25 µM d incubated for additional 48 h at stated conditions. MTS solution was next added to each well, incubated for additional 3 h at 37°C, and absorbance was read at 490 nm using BioTek Synergy neo 2 plate reader. Untreated cells served as control. Curve fitting was performed using GraphPad Prism and EC50 value was determined.

Compound | EC50
Cc1cc(C)n(Cc2c(C(=O)N3CCC4(CCCCOC[C@@H]5CCCN5C(=O)c5cccc(c5)OC4)CC3)noc2C)n1 [DC-5921, CC1=NN(CC2=C(C)ON=C2C(=O)N2CCC3(CC2)CCCCOC[C@@H]2CCCN2C(=O)C2=CC(OC3)=CC=C2)C(C)=C1] | > 25 µM
CCc1nc2ccccc2c(C(=O)N2CCC3(CCCCOCCNC(=O)c4ccccc4OC3)CC2)c1C [DC-5931, CCC1=NC2=C(C=CC=C2)C(C(=O)N2CCC3(CC2)CCCCOCCNC(=O)C2=C(OC3)C=CC=C2)=C1C] | > 25 µM
CN1CCOc2ccccc2CCCCCC2(CCN(C(=O)[C@@H](N)c3ccccc3)CC2)C1=O [DC-9235, CN1CCOC2=C(CCCCCC3(CCN(CC3)C(=O)[C@@H](N)C3=CC=CC=C3)C1=O)C=CC=C2] | > 25 µM
CN1CCOc2ccccc2CCCCCC2(CCN(C(=O)[C@H](N)c3ccccc3)CC2)C1=O [DC-9239, CN1CCOC2=C(CCCCCC3(CCN(CC3)C(=O)[C@H](N)C3=CC=CC=C3)C1=O)C=CC=C2] | 24.2 µM

Reference: PMC6974622, “DeepMalaria: Artificial Intelligence Driven Discovery of Potent Antiplasmodials” (Frontiers in Pharmacology, 2020)
